Data: patent US8026222B2, “Methods of use of glycomimetics with replacements for hexoses and n-acetyl hexosamines” (GlycoMimetics, Inc., priority 2007, dated 2011)

Tested on: human umbilical vein endothelial cells (HUVECS)
Experiment: neutrophil rolling on endothelial cell monolayers under flow conditions (rolling index)
Assay type: cell-based
Details: HUVEC monolayers incubated in glycated serum protein for 4 hours, perfused with human neutrophils (FIG. 18, FIG. 19)
Protocol: Monolayers of human umbilical vein endothelial cells (HUVECS) were incubated in glycated serum proteins (FIG. 18, glycated albumin, Gly-HSA or FIG. 19, glycated hemoglobin, Gly-Hb) for 4 hours. Monolayers were then inserted into a flow chamber and the chamber was perfused with human neutrophils (10^6 cell/ml) at a flow rate corresponding to a wall shear stress of 0.9 dynes/cm^2. Digital images were acquired and analyzed to determine the rolling index (RI) which is a measure of the degree of neutrophil rolling on the endothelial cell monolayer.

glycated hemoglobin: glycated serum protein used to stimulate endothelial cells
increase in neutrophil rolling (rolling index): ~2.8 fold
